Columns and labels:
Test in all cases: relative viability (nuclei count vs DMSO), 5 days (fraction); higher = more cells survive
201T = tested on: 201T
Method in brief: (§1)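 Lung cancer cell lines were pin-tool dosed in 1536-well plates on the day after seeding, with either a lone drug or a fixed anchor-drug dose plus five library-drug doses (not always all listed) in √10 steps. Nuclei were counted on 4× images after 5 days. Relative viability is the ratio of treated-well to vehicle-well nuclei counts, with each value a median of duplicate plates.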

A-427 = tested on: A-427
Method in brief: as §1

BEN = tested on: BEN
Method in brief: as §1

COR-L23 = tested on: COR-L23
Method in brief: as §1

EKVX = tested on: EKVX
Method in brief: as §1

EMC-BAC-2 = tested on: EMC-BAC-2
Method in brief: as §1

EPLC-272H = tested on: EPLC-272H
Method in brief: as §1

HCC-44 = tested on: HCC-44
Method in brief: as §1

HCC-827 = tested on: HCC-827
Method in brief: as §1

LCLC-103H = tested on: LCLC-103H
Method in brief: as §1

LK-2 = tested on: LK-2
Method in brief: as §1

LXF-289 = tested on: LXF-289
Method in brief: as §1

NCI-H1650 = tested on: NCI-H1650
Method in brief: as §1

NCI-H1651 = tested on: NCI-H1651
Method in brief: as §1

NCI-H1793 = tested on: NCI-H1793
Method in brief: as §1

NCI-H1915 = tested on: NCI-H1915
Method in brief: as §1

NCI-H2087 = tested on: NCI-H2087
Method in brief: as §1

NCI-H2126 = tested on: NCI-H2126
Method in brief: as §1

NCI-H2347 = tested on: NCI-H2347
Method in brief: as §1

NCI-H358 = tested on: NCI-H358
Method in brief: as §1

NCI-H460 = tested on: NCI-H460
Method in brief: as §1

NCI-H596 = tested on: NCI-H596
Method in brief: as §1

SW 1573 = tested on: SW 1573
Method in brief: as §1

O=C(O)CCCCC(CCSCc1ccccc1)SCc1ccccc1 (centres undefined) [CPI-613] + COc1cccc2cc(-c3nc([C@H]4CC[C@H](C(=O)O)CC4)n4ncnc(N)c34)[nH]c12 [OSI-027] (partner 0.5 µM) gave a relative viability (201T; first compound 5 µM) of 0.754, a relative viability (201T; first compound 15.81 µM) of 0.711 and a relative viability (201T; first compound 50 µM) of 0.606. The relative viability (201T; first compound 158.11 µM) was 0.678, the relative viability (201T; first compound 500 µM) was 0.818 and the relative viability (A-427; first compound 5 µM) was 0.416. For the same compound, the relative viability (A-427; first compound 15.81 µM) was 0.423, the relative viability (A-427; first compound 50 µM) was 0.387 and the relative viability (A-427; first compound 158.11 µM) was 0.348. It also gave a relative viability (A-427; first compound 500 µM) of 0.154, a relative viability (BEN; first compound 5 µM) of 0.289 and a relative viability (BEN; first compound 15.81 µM) of 0.298. For the same compound, the relative viability (BEN; first compound 50 µM) was 0.304, the relative viability (BEN; first compound 158.11 µM) was 0.265 and the relative viability (BEN; first compound 500 µM) was 0.28. It also gave a relative viability (COR-L23; first compound 5 µM) of 0.738, a relative viability (COR-L23; first compound 15.81 µM) of 0.584 and a relative viability (COR-L23; first compound 50 µM) of 0.562. It also gave a relative viability (COR-L23; first compound 158.11 µM) of 0.169, a relative viability (COR-L23; first compound 500 µM) of 0.0278 and a relative viability (EKVX; first compound 5 µM) of 0.631. For the same compound, the relative viability (EKVX; first compound 15.81 µM) was 0.624, the relative viability (EKVX; first compound 50 µM) was 0.718 and the relative viability (EKVX; first compound 158.11 µM) was 0.673. For the same compound, the relative viability (EKVX; first compound 500 µM) was 0.693, the relative viability (EMC-BAC-2; first compound 5 µM) was 0.385 and the relative viability (EMC-BAC-2; first compound 15.81 µM) was 0.334. For the same compound, the relative viability (EMC-BAC-2; first compound 50 µM) was 0.337, the relative viability (EMC-BAC-2; first compound 158.11 µM) was 0.181 and the relative viability (EMC-BAC-2; first compound 500 µM) was 0.0272. It also gave a relative viability (EPLC-272H; first compound 5 µM) of 0.279, a relative viability (EPLC-272H; first compound 15.81 µM) of 0.307 and a relative viability (EPLC-272H; first compound 50 µM) of 0.263. It also gave a relative viability (EPLC-272H; first compound 158.11 µM) of 0.261, a relative viability (EPLC-272H; first compound 500 µM) of 0.0195 and a relative viability (HCC-44; first compound 5 µM) of 0.432. For the same compound, the relative viability (HCC-44; first compound 15.81 µM) was 0.405, the relative viability (HCC-44; first compound 50 µM) was 0.501 and the relative viability (HCC-44; first compound 158.11 µM) was 0.489. For the same compound, the relative viability (HCC-44; first compound 500 µM) was 0.0788, the relative viability (HCC-827; first compound 5 µM) was 0.745 and the relative viability (HCC-827; first compound 15.81 µM) was 0.717. For the same compound, the relative viability (HCC-827; first compound 50 µM) was 0.673, the relative viability (HCC-827; first compound 158.11 µM) was 0.431 and the relative viability (HCC-827; first compound 500 µM) was 0.48. For the same compound, the relative viability (LCLC-103H; first compound 5 µM) was 0.424, the relative viability (LCLC-103H; first compound 15.81 µM) was 0.428 and the relative viability (LCLC-103H; first compound 50 µM) was 0.345. It also gave a relative viability (LCLC-103H; first compound 158.11 µM) of 0.377, a relative viability (LCLC-103H; first compound 500 µM) of 0.317 and a relative viability (LK-2; first compound 5 µM) of 0.189. The relative viability (LK-2; first compound 15.81 µM) was 0.19, the relative viability (LK-2; first compound 50 µM) was 0.18 and the relative viability (LK-2; first compound 158.11 µM) was 0.161. For the same compound, the relative viability (LK-2; first compound 500 µM) was 0.128, the relative viability (LXF-289; first compound 5 µM) was 0.788 and the relative viability (LXF-289; first compound 15.81 µM) was 0.694. The relative viability (LXF-289; first compound 50 µM) was 0.733, the relative viability (LXF-289; first compound 158.11 µM) was 0.404 and the relative viability (LXF-289; first compound 500 µM) was 0.0382. For the same compound, the relative viability (NCI-H1650; first compound 5 µM) was 0.592, the relative viability (NCI-H1650; first compound 15.81 µM) was 0.566 and the relative viability (NCI-H1650; first compound 50 µM) was 0.58. It also gave a relative viability (NCI-H1650; first compound 158.11 µM) of 0.14, a relative viability (NCI-H1650; first compound 500 µM) of 0.0159 and a relative viability (NCI-H1651; first compound 5 µM) of 0.66. The relative viability (NCI-H1651; first compound 15.81 µM) was 0.79, the relative viability (NCI-H1651; first compound 50 µM) was 0.616 and the relative viability (NCI-H1651; first compound 158.11 µM) was 0.333. The relative viability (NCI-H1651; first compound 500 µM) was 0.0775, the relative viability (NCI-H1793; first compound 5 µM) was 0.277 and the relative viability (NCI-H1793; first compound 15.81 µM) was 0.241. For the same compound, the relative viability (NCI-H1793; first compound 50 µM) was 0.245, the relative viability (NCI-H1793; first compound 158.11 µM) was 0.171 and the relative viability (NCI-H1793; first compound 500 µM) was 0.0629. The relative viability (NCI-H1915; first compound 5 µM) was 0.557, the relative viability (NCI-H1915; first compound 15.81 µM) was 0.538 and the relative viability (NCI-H1915; first compound 50 µM) was 0.485. The relative viability (NCI-H1915; first compound 158.11 µM) was 0.447, the relative viability (NCI-H1915; first compound 500 µM) was 0.001 and the relative viability (NCI-H2087; first compound 5 µM) was 0.501. It also gave a relative viability (NCI-H2087; first compound 15.81 µM) of 0.462, a relative viability (NCI-H2087; first compound 50 µM) of 0.471 and a relative viability (NCI-H2087; first compound 158.11 µM) of 0.195. It also gave a relative viability (NCI-H2087; first compound 500 µM) of 0.0169, a relative viability (NCI-H2126; first compound 5 µM) of 0.66 and a relative viability (NCI-H2126; first compound 15.81 µM) of 0.643. The relative viability (NCI-H2126; first compound 50 µM) was 0.7, the relative viability (NCI-H2126; first compound 158.11 µM) was 0.448 and the relative viability (NCI-H2126; first compound 500 µM) was 0.63. It also gave a relative viability (NCI-H2347; first compound 5 µM) of 0.325, a relative viability (NCI-H2347; first compound 15.81 µM) of 0.407 and a relative viability (NCI-H2347; first compound 50 µM) of 0.336. The relative viability (NCI-H2347; first compound 158.11 µM) was 0.373, the relative viability (NCI-H2347; first compound 500 µM) was 0.456 and the relative viability (NCI-H358; first compound 15.81 µM) was 0.655. It also gave a relative viability (NCI-H358; first compound 50 µM) of 0.639, a relative viability (NCI-H358; first compound 158.11 µM) of 0.303 and a relative viability (NCI-H358; first compound 500 µM) of 0.0233. For the same compound, the relative viability (NCI-H460; first compound 5 µM) was 0.636, the relative viability (NCI-H460; first compound 15.81 µM) was 0.422 and the relative viability (NCI-H460; first compound 50 µM) was 0.535. The relative viability (NCI-H460; first compound 158.11 µM) was 0.173, the relative viability (NCI-H460; first compound 500 µM) was 0.0125 and the relative viability (NCI-H596; first compound 5 µM) was 0.673. The relative viability (NCI-H596; first compound 15.81 µM) was 0.623, the relative viability (NCI-H596; first compound 50 µM) was 0.832 and the relative viability (NCI-H596; first compound 158.11 µM) was 0.489. For the same compound, the relative viability (NCI-H596; first compound 500 µM) was 0.0755, the relative viability (SW 1573; first compound 5 µM) was 0.592 and the relative viability (SW 1573; first compound 15.81 µM) was 0.444. For the same compound, the relative viability (SW 1573; first compound 50 µM) was 0.498, the relative viability (SW 1573; first compound 158.11 µM) was 0.0962 and the relative viability (SW 1573; first compound 500 µM) was 0.056.
